Results as given in the NIST ThermoML archive (doi:10.1021/je700260f).

Conditions: Liquid, Vibrating tube method

FC(C(F)(F)F)C(F)(F)F [1,1,1,2,3,3,3-heptafluoropropane]
Conditions	mass density [kg/m3]
303.14 K, 14797 kPa	1456.7
303.14 K, 14835 kPa	1456.8
303.14 K, 17693 kPa	1469.8
303.14 K, 21659 kPa	1486
303.14 K, 21693 kPa	1486.3
303.14 K, 21731 kPa	1486.4
303.14 K, 21764 kPa	1486.4
303.14 K, 21797 kPa	1486.6
303.14 K, 21835 kPa	1486.9
303.14 K, 21869 kPa	1486.9
303.14 K, 21906 kPa	1486.9
303.14 K, 21939 kPa	1487.2
303.14 K, 21972 kPa	1487.3
303.14 K, 22005 kPa	1487.5
303.14 K, 22039 kPa	1487.5
303.14 K, 22067 kPa	1487.7
303.14 K, 22096 kPa	1487.7
303.14 K, 22140 kPa	1487.9
303.14 K, 22178 kPa	1488.1
303.14 K, 22208 kPa	1488.1
303.14 K, 22251 kPa	1488.4
303.14 K, 22280 kPa	1488.4
303.14 K, 22361 kPa	1488.8
303.14 K, 22404 kPa	1488.9
303.14 K, 23559 kPa	1493.4
303.14 K, 23594 kPa	1493.4
303.14 K, 23621 kPa	1493.5
303.14 K, 23651 kPa	1493.8
303.14 K, 23681 kPa	1493.8
303.14 K, 26459 kPa	1504
303.14 K, 26487 kPa	1503.9
303.14 K, 26573 kPa	1504.3
303.14 K, 26602 kPa	1504.5
303.14 K, 26627 kPa	1504.5
303.14 K, 26661 kPa	1504.7
303.14 K, 26685 kPa	1504.6
303.14 K, 27097 kPa	1506
303.14 K, 27130 kPa	1506.1
303.14 K, 27159 kPa	1506.3
303.14 K, 27188 kPa	1506.5
303.14 K, 27217 kPa	1506.5
303.14 K, 27398 kPa	1507.2
303.14 K, 27427 kPa	1507.2
303.14 K, 27494 kPa	1507.5
303.14 K, 27528 kPa	1507.5
303.14 K, 27562 kPa	1507.7
303.14 K, 27605 kPa	1507.8
303.14 K, 27634 kPa	1507.9
303.14 K, 27671 kPa	1508
303.14 K, 27705 kPa	1508.1
303.14 K, 27735 kPa	1508.3
303.14 K, 27769 kPa	1508.4
303.14 K, 27803 kPa	1508.5
303.14 K, 27840 kPa	1508.4
303.14 K, 27861 kPa	1508.6
303.14 K, 27887 kPa	1508.9
303.14 K, 27917 kPa	1508.9
303.14 K, 27946 kPa	1509
303.14 K, 27976 kPa	1509.1
303.14 K, 28006 kPa	1509.2
303.14 K, 28040 kPa	1509.3
303.14 K, 28065 kPa	1509.5
303.14 K, 28095 kPa	1509.5
303.14 K, 28120 kPa	1509.6
303.14 K, 28158 kPa	1509.6
303.14 K, 28184 kPa	1509.9
303.14 K, 28206 kPa	1510
303.14 K, 28241 kPa	1510
303.14 K, 28271 kPa	1510.1
303.14 K, 28300 kPa	1510.2
303.14 K, 28330 kPa	1510.4
303.14 K, 28355 kPa	1510.5
303.14 K, 28394 kPa	1510.6
303.14 K, 31947 kPa	1522.2
303.14 K, 31984 kPa	1522.4
303.14 K, 32012 kPa	1522.5
303.14 K, 32053 kPa	1522.5
303.14 K, 32086 kPa	1522.6
303.14 K, 32123 kPa	1522.8
303.14 K, 32155 kPa	1522.9
303.14 K, 32187 kPa	1522.9
303.14 K, 32215 kPa	1523
303.14 K, 32251 kPa	1523.2
303.14 K, 32280 kPa	1523.2
303.14 K, 32322 kPa	1523.4
303.14 K, 32345 kPa	1523.3
303.14 K, 32382 kPa	1523.4
303.14 K, 32418 kPa	1523.7
303.14 K, 32449 kPa	1523.8
303.14 K, 32481 kPa	1523.9
303.14 K, 32513 kPa	1524
303.14 K, 32542 kPa	1524.1
303.14 K, 32574 kPa	1524.1
303.14 K, 32603 kPa	1524.3
303.14 K, 32646 kPa	1524.3
303.14 K, 32674 kPa	1524.4
303.14 K, 32713 kPa	1524.6
303.14 K, 32736 kPa	1524.6
303.14 K, 32764 kPa	1524.8
303.14 K, 32792 kPa	1524.9
303.14 K, 32830 kPa	1524.9
303.14 K, 32858 kPa	1525.1
303.14 K, 32887 kPa	1525.2
303.14 K, 32920 kPa	1525.2
303.14 K, 32949 kPa	1525.4
303.14 K, 32977 kPa	1525.5
303.14 K, 33020 kPa	1525.5
303.14 K, 33054 kPa	1525.6
303.14 K, 33098 kPa	1525.7
303.14 K, 33133 kPa	1525.9
303.14 K, 33172 kPa	1526
303.14 K, 33200 kPa	1526.1
303.14 K, 33239 kPa	1526.2
303.14 K, 33268 kPa	1526.3
303.14 K, 33306 kPa	1526.5
303.14 K, 33345 kPa	1526.6
303.14 K, 33378 kPa	1526.7
303.14 K, 33413 kPa	1526.7
303.14 K, 33457 kPa	1526.9
303.14 K, 33496 kPa	1527.1
303.14 K, 33537 kPa	1527.1
303.14 K, 33567 kPa	1527.3
303.14 K, 33615 kPa	1527.5
303.14 K, 33644 kPa	1527.5
303.14 K, 33683 kPa	1527.6
303.14 K, 33717 kPa	1527.8
303.14 K, 33758 kPa	1527.8
303.14 K, 33793 kPa	1527.9
303.14 K, 33838 kPa	1528
303.14 K, 33877 kPa	1528.2
303.14 K, 33912 kPa	1528.4
303.14 K, 34122 kPa	1529
303.14 K, 34158 kPa	1529
303.14 K, 34201 kPa	1529.1
303.14 K, 34250 kPa	1529.3
303.14 K, 34300 kPa	1529.4
303.14 K, 34356 kPa	1529.6
303.14 K, 34400 kPa	1529.8
303.14 K, 34442 kPa	1529.9
303.14 K, 34476 kPa	1529.9
303.14 K, 34501 kPa	1530.1
303.14 K, 34513 kPa	1530
303.14 K, 34522 kPa	1530.1
303.14 K, 34526 kPa	1530.1
303.15 K, 540 kPa	1366.5
303.15 K, 560 kPa	1366.8
303.15 K, 580 kPa	1367
303.15 K, 600 kPa	1367.1
303.15 K, 630 kPa	1367.3
303.15 K, 650 kPa	1367.5
303.15 K, 680 kPa	1367.6
303.15 K, 700 kPa	1368
303.15 K, 720 kPa	1368.1
303.15 K, 740 kPa	1368.3
303.15 K, 750 kPa	1368.5
303.15 K, 780 kPa	1368.7
303.15 K, 800 kPa	1368.9
303.15 K, 830 kPa	1369.2
303.15 K, 850 kPa	1369.3
303.15 K, 870 kPa	1369.5
303.15 K, 900 kPa	1369.8
303.15 K, 920 kPa	1369.9
303.15 K, 950 kPa	1370.1
303.15 K, 980 kPa	1370.4
303.15 K, 1000 kPa	1370.7
303.15 K, 1030 kPa	1370.9
303.15 K, 1060 kPa	1371.1
303.15 K, 1090 kPa	1371.4
303.15 K, 1110 kPa	1371.6
303.15 K, 1139 kPa	1371.8
303.15 K, 1161 kPa	1372
303.15 K, 1177 kPa	1372.1
303.15 K, 1199 kPa	1372.3
303.15 K, 1213 kPa	1372.5
303.15 K, 1250 kPa	1372.8
303.15 K, 1267 kPa	1372.9
303.15 K, 1284 kPa	1373.1
303.15 K, 1299 kPa	1373.1
303.15 K, 1317 kPa	1373.4
303.15 K, 1339 kPa	1373.5
303.15 K, 1354 kPa	1373.7
303.15 K, 1374 kPa	1373.9
303.15 K, 1395 kPa	1374.1
303.15 K, 1417 kPa	1374.2
303.15 K, 1440 kPa	1374.4
303.15 K, 1464 kPa	1374.6
303.15 K, 1481 kPa	1374.7
303.15 K, 1505 kPa	1375
303.15 K, 1522 kPa	1375
303.15 K, 1548 kPa	1375.3
303.15 K, 1568 kPa	1375.5
303.15 K, 1590 kPa	1375.6
303.15 K, 1608 kPa	1375.8
303.15 K, 1631 kPa	1375.9
303.15 K, 1645 kPa	1376.1
303.15 K, 1666 kPa	1376.5
303.15 K, 1689 kPa	1376.4
303.15 K, 1706 kPa	1376.6
303.15 K, 1732 kPa	1376.9
303.15 K, 1794 kPa	1377.4
303.15 K, 1812 kPa	1377.6
303.15 K, 1859 kPa	1377.8
303.15 K, 1883 kPa	1377.9
303.15 K, 1903 kPa	1378.3
303.15 K, 1924 kPa	1378.4
